Measurements as given in US8048879B2, “Substituted 4,5,6,7-tetrahydro-isoxazolo[4,5-c]pyridine compounds and use thereof for producing medicaments” (Gruenenthal GmbH, priority 2005, dated 2011).

Assays:
NA transporter = molecular target: T1, NA transporter (Rattus norvegicus, UniProt Q9WTR4); assay: Noradrenalin (NA) uptake inhibition, synaptosomes from rat brain (hypothalamus); assay type: biochemical
T1 construct: from tissue; host or cells: rat brain (hypothalamus), synaptosomes, P2 fraction
T1 sequence (Q9WTR4 1-597): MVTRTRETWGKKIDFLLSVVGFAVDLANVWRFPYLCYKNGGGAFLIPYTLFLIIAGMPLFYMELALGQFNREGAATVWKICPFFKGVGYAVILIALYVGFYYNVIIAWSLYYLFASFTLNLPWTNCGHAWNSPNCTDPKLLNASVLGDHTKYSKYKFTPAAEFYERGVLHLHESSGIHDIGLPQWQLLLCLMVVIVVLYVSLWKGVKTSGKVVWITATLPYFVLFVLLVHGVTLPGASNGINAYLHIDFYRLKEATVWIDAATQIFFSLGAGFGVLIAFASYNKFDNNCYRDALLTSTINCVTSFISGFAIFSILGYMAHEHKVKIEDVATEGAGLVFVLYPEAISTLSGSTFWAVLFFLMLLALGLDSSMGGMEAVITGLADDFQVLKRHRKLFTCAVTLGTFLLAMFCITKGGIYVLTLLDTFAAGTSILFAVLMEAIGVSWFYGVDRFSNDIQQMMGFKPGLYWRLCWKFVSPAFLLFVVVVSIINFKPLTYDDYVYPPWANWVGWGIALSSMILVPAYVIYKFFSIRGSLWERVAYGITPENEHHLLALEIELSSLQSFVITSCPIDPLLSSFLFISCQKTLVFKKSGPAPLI
Source text: b) Method for Determining Noradrenalin and 5-HT Uptake Inhibition:
Synaptosomes from rat brain regions are freshly isolated for in vitro studies, as described in the publication “The isolation of nerve endings from brain” by E. G. Gray and V. P. Whittaker, J. Anatomy 96, pages 79-88, 1962. The corresponding literature description is hereby introduced as a reference and is deemed to be part of the disclosure.
The tissue (hypothalamus for the determination of noradrenalin uptake inhibition and medulla and pons for the determination of 5-HT uptake inhibition) is homogenised in ice-cooled 0.32 M sucrose (100 mg of tissue/1 mL) in a glass homogeniser with Teflon pestle using five complete up and down strokes at 840 revolutions/minute.
The homogenate is centrifuged at 4° C. for 10 minutes at 1000 g. After subsequent centrifugation at 17000 g for 55 minutes, the synaptosomes (P2 fraction) are obtained, which are resuspended in 0.32 M […] (0.5 mL/100 mg of original weight).
The particular uptake is measured in a 96-well microtitre plate. The volume is 250 μL and the incubation proceeds at room temperature (approx. 20-25° C.) under an O2 atmosphere.
The incubation time is 7.5 minutes for [^3H]-NA and 5 minutes for [^3H]-5-HT. The 96 samples are then filtered through a Unifilter GF/B® microtitre plate (Packard) and washed with 200 mL of incubated buffer using a “Brabdel MPXRI-96T Cell-Harvester”. The Unifilter GF/B plate is dried for 1 hour at 55° C. The plate is then sealed with a Back Seal® (Packard) and 35 μL of scintillation fluid are added per well (Ultima Gold®, Packard). After sealing with a top Seal® (Packard) and establishing an equilibrium (around 5 hours), radioactivity is determined in a “Trilux 1450 Microbeta” (Wallac).
The quantity of protein used in the above determination corresponds to the values known from the literature, as for example described in “Protein measurement with the folin phenol reagent”, Lowry et al., J. Biol. Chem., 193, 265-275, 1951.
A detailed description of the method may additionally be found in the literature, for example in M. Ch. Frink, H.-H. Hennies, W. Engelberger, M. Haurand and B. Wilffert (1996) Arzneim.-Forsch./Drug Res. 46 (III), 11, 1029-1036.
The following characteristics were determined for the NA or 5-HT transporter: […]

5-HT transporter = molecular target: T2, 5-HT transporter (Rattus norvegicus, UniProt P31652); assay: 5-HT uptake inhibition, synaptosomes from rat brain (medulla and pons); assay type: biochemical
T2 construct: from tissue; host or cells: rat brain (medulla and pons), synaptosomes, P2 fraction
T2 sequence (P31652 whole entry): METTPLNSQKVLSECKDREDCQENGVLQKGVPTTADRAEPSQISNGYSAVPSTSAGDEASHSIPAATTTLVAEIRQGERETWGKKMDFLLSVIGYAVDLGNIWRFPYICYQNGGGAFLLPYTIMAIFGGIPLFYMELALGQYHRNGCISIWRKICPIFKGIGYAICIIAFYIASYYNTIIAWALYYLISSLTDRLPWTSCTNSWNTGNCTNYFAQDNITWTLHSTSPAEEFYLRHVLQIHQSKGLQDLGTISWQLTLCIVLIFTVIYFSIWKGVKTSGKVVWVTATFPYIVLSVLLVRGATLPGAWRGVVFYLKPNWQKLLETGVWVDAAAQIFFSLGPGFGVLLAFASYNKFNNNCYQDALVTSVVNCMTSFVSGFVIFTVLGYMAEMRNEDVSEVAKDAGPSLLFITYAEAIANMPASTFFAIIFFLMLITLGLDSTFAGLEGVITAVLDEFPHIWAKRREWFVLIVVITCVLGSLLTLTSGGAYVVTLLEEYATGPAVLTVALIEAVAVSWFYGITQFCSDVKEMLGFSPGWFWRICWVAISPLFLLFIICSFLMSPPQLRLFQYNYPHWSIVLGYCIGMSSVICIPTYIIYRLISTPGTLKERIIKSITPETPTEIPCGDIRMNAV
Summary of the method: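 Freshly isolated rat brain synaptosomes (P2 fraction): hypothalamus for NA uptake, medulla/pons for 5-HT uptake. Uptake of [3H]-NA (7.5 min) or [3H]-5-HT (5 min) at room temperature under O2, stopped by filtration over GF/B. Retained radioactivity counted by scintillation.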

Row | Structure (SMILES) | NA Uptake (rat), 10 μM, % inhibition (NA transporter) [%] | 5-HT uptake (rat), 10 μM, % inhibition (5-HT transporter) [%] | inhibition at 10 µM (NA transporter) [%] | inhibition at 10 µM (5-HT transporter) [%]
1 | Cc1ccc(NC(=O)N2CCc3onc(C(=O)NCCc4ccccc4)c3C2)cc1[N+](=O)[O-] [Example 4, 6,7-dihydro-4H-isoxazolo[4,5-c]pyridine-3,5-dicarboxylic acid 5-[(4-methyl-3-nitro-phenyl) amide] 3-(phenethyl amide)] | 57 | 45 |  | 
2 | O=C(NCCc1ccccc1)c1noc2c1CN(C(=O)Nc1cccc(F)c1)CC2 [Example 8, 6,7-dihydro-4H-isoxazolo[4,5-c]pyridine-3,5-dicarboxylic acid 5-[(3-fluorophenyl) amide] 3-(phenethyl amide)] | 66 | 54 |  | 
3 | O=C(NCc1ccccc1)c1noc2c1CN(C(=O)NCCc1ccccc1)CC2 [Example 10, 6,7-dihydro-4H-isoxazolo[4,5-c]pyridine-3,5-dicarboxylic acid 3-benzyl amide 5-(phenethyl amide)] | 42 | 51 |  | 
4 | N#Cc1cccc(NC(=O)N2CCc3onc(C(=O)NCc4cccs4)c3C2)c1 [Example 12, 6,7-dihydro-4H-isoxazolo[4,5-c]pyridine-3,5-dicarboxylic acid 5-[(3-cyano-phenyl) amide]3-[(thiophen-2-ylmethyl) amide]] | 46 | 51 |  | 
5 | CCOc1ccc(NC(=O)N2CCc3onc(C(=O)Nc4ccccc4)c3C2)cc1 [Example 13, 6,7-dihydro-4H-isoxazolo[4,5-c]pyridine-3,5-dicarboxylic acid 5-[(4-ethoxy-phenyl) amide] 3-phenyl amide] | 51 | 48 |  | 
6 | CC(NC(=O)N1CCc2onc(C(=O)NCCc3ccccc3)c2C1)c1cccc2ccccc12 (centres unmarked) [Example 18, 6,7-dihydro-4H-isoxazolo[4,5-c]pyridine-3,5-dicarboxylic acid 5-[(1-naphthalen-1-yl-ethyl) amide]3-(phenethyl amide)] | 47 | 42 |  | 
7 | O=C(O)CC1(CC(=O)N2CCc3onc(C(=O)Nc4ccccc4)c3C2)CCCC1 [Example 28, {1-[2-oxo-2-(3-phenylcarbamoyl-6,7-dihydro-4H-isoxazolo[4,5-c]pyridin-5-yl)-ethyl]-cyclopentyl}acetic acid] |  |  | 44 | 55
8 | O=C(NC1CCN(Cc2ccc3ccccc3c2)C1)c1noc2c1CN(S(=O)(=O)c1ccccc1)CC2 (centres unmarked) [Example 33, 5-benzenesulfonyl-4,5,6,7-tetrahydro-isoxazolo[4,5-c]pyridine-3-carboxylic acid (1-naphthalen-2-ylmethyl-pyrrolidin-3-yl) amide] |  |  | 88 | 74
9 | COc1ccc(CNC(=O)c2noc3c2CN(S(=O)(=O)c2ccccc2)CC3)cc1OC [Example 47, 5-benzenesulfonyl-4,5,6,7-tetrahydro-isoxazolo[4,5-c]pyridine-3-carboxylic acid 3,4-dimethoxy-benzyl amide] |  |  | 67 | 68
10 | O=C(c1noc2c1CN(S(=O)(=O)c1cc(Cl)ccc1Cl)CC2)N(CCc1ccccc1)Cc1ccccc1 [Example 59, 5-(2,5-dichloro-benzenesulfonyl)-4,5,6,7-tetrahydro-isoxazolo[4,5-c]pyridine-3-carboxylic acid benzyl-phenethyl amide] |  |  | 79 | 71
11 | O=C(c1noc2c1CN(S(=O)(=O)c1cccc(C(F)(F)F)c1)CC2)N(CCc1ccccc1)Cc1ccccc1 [Example 68, 5-(3-trifluoromethyl-benzenesulfonyl)-4,5,6,7-tetrahydro-isoxazolo[4,5-c]pyridine-3-carboxylic acid benzyl-phenethyl amide] |  |  | 84 | 63
12 | O=C(c1noc2c1CN(S(=O)(=O)c1ccccc1)CC2)N1CCN(CC=Cc2ccccc2)CC1 [Example 97, (5-benzenesulfonyl-4,5,6,7-tetrahydro-isoxazolo[4,5-c]pyridin-3-yl)-[4-(3-phenyl-allyl)-piperazin-1-yl]-methanone] |  |  | 75 | 67
13 | O=C(NC1CCN(Cc2ccccc2)C1)c1noc2c1CN(S(=O)(=O)c1ccc(OC(F)(F)F)cc1)CC2 (centres unmarked) [Example 117, 5-(4-trifluoromethoxy-benzenesulfonyl)-4,5,6,7-tetrahydro-isoxazolo[4,5-c]pyridine-3-carboxylic acid (1-benzyl-pyrrolidin-3-yl)-amide] |  |  | 75 | 68
14 | Cc1ccc(S(=O)(=O)N2CCc3onc(C(=O)NC(C)C(=O)OC(C)(C)C)c3C2)cc1 (centres unmarked) [Example 120, 2-{[5-(toluene-4-sulfonyl)-4,5,6,7-tetrahydro-isoxazolo[4,5-c]pyridine-3-carbonyl]-amino}-propionic acid tert-butyl ester] |  |  | 62 | 
15 | CCOC(=O)CCNC(=O)c1noc2c1CN(S(=O)(=O)c1ccc(Cl)cc1)CC2 [Example 121, 3-{[5-(4-chloro-benzenesulfonyl)-4,5,6,7-tetrahydro-isoxazolo[4,5-c]pyridine-3-carbonyl]-amino}-propionic acid ethyl ester] |  |  | 61 | 
16 | CN(C)S(=O)(=O)N1CCc2onc(C(=O)NCCc3ccc(Cl)c(Cl)c3)c2C1 [Example 122, 5-dimethylsulfamoyl-4,5,6,7-tetrahydro-isoxazolo[4,5-c]pyridine-3-carboxylic acid [2-(3,4-dichloro-phenyl)-ethyl] amide] |  |  | 63 | 
17 | CCOC(=O)CCNC(=O)c1noc2c1CN(C(=O)Cc1ccc3ccccc3c1)CC2 [Example 125, 3-{[5-(2-naphthalen-2-yl-acetyl)-4,5,6,7-tetrahydro-isoxazolo[4,5-c]pyridine-3-carbonyl]-amino}-propionic acid ethyl ester] |  |  | 63 | 
18 | COc1ccc(CNC(=S)N2CCc3onc(C(=O)NC4CCCC4)c3C2)cc1 [Example 127, 5-(4-methoxy-benzylthiocarbamoyl)-4,5,6,7-tetrahydro-isoxazolo[4,5-c]pyridine-3-carboxylic acid cyclopentyl amide] |  |  | 63 | 
19 | COCCNC(=S)N1CCc2onc(C(=O)NCCc3ccccc3)c2C1 [Example 130, 5-(2-methoxy-ethylthiocarbamoyl)-4,5,6,7-tetrahydro-isoxazolo[4,5-c]pyridine-3-carboxylic acid phenethyl amide] |  |  | 67 | 
20 | O=C(NCCc1ccccc1)c1noc2c1CN(C(=S)Nc1c(F)c(F)c(F)c(F)c1F)CC2 [Example 131, 5-pentafluorophenylthiocarbamoyl-4,5,6,7-tetrahydro-isoxazolo[4,5-c]pyridine-3-carboxylic acid phenethyl amide] | 73 |  |  | 
21 | CC(NC(=S)N1CCc2onc(C(=O)NCCc3ccccc3)c2C1)c1ccccc1 (centres unmarked) [Example 132, 5-(1-phenyl-ethylthiocarbamoyl)-4,5,6,7-tetrahydro-isoxazolo[4,5-c]pyridine-3-carboxylic acid phenethyl amide] |  |  | 76 | 
22 | O=C(Nc1ccccc1)c1noc2c1CN(Cc1ccc3ccccc3c1Br)CC2 [Example 135, 5-(1-bromo-naphthalen-2-ylmethyl)-4,5,6,7-tetrahydro-isoxazolo[4,5-c]pyridine-3-carboxylic acid phenyl amide] |  |  | 60 | 
23 | O=C(c1noc2c1CN(S(=O)(=O)c1ccc(Cl)c(Cl)c1)CC2)N1CCN(c2nccs2)CC1 [Example 140, (5-(3,4-dichlorophenylsulfonyl)-4,5,6,7-tetrahydroisoxazolo[4,5-c]pyridin-3-yl)(4-(thiazol-2-yl)piperazin-1-yl)methanone] |  |  | 46 | 47
24 | Cc1cc(C)c(S(=O)(=O)N2CCc3onc(C(=O)N4CCN(c5nccs5)CC4)c3C2)c(C)c1 [Example 141, (5-(mesitylsulfonyl)-4,5,6,7-tetrahydroisoxazolo[4,5-c]pyridin-3-yl)(4-(thiazol-2-yl)piperazin-1-yl)methanone] |  |  | 41 | 58
25 | O=C(c1noc2c1CN(S(=O)(=O)c1cccc3ccccc13)CC2)N1CCN(c2nccs2)CC1 [Example 142, (5-(naphthalen-1-ylsulfonyl)-4,5,6,7-tetrahydroisoxazolo[4,5-c]pyridin-3-yl)(4-(thiazol-2-yl)piperazin-1-yl)methanone] |  |  | 31 | 30
